Read-outs that look alike come from different tables or passages of the source. Starred links: 1 amine or outer side, 2 acyl side, 3 side chain; linkers in the order of their positions; H or OH if unused. Positions of bridges follow the written chain, without caps; N, C: chain ends. Non-standard residues stand in square brackets, D forms with d. Residues, ends and D or L forms follow the SMILES beside them. Groups on a side chain read outwards from the residue. *: point of attachment. Trp(1-CH2CO2Me) = COC(=O)Cn1cc(C[C@H](N)C(=O)O)c2ccccc21; Trp(1-CH2COOH) = N[C@@H](Cc1cn(CC(=O)O)c2ccccc12)C(=O)O; Benzoyl(2-(4-MeOPh)) = COc1ccc(-c2ccccc2C(=O)*)cc1; X18 = O=[N+]([O-])c1ccc(NC(=S)*)c(Cl)c1; NH(1-naphthyl) = c1ccc2c(N*)cccc2c1; X13 = O=[N+]([O-])c1ccc(NC(=S)*)cc1; Hyp = O=C(O)[C@@H]1C[C@@H](O)CN1; X28 = Cc1ccc(Cl)c(NC(=S)*)c1Cl; X72 = COc1ccc2nccc(C(=O)*)c2c1; NMeNle = CCCC[C@H](NC)C(=O)O; X12 = S=C(Nc1ccc2ccccc2c1)*; 3Abz = Nc1cccc(C(=O)O)c1; 4Abz = Nc1ccc(C(=O)O)cc1; NMeA = CN[C@@H](C)C(=O)O; βNA = c1ccc2cc(N*)ccc2c1; Dab = NCC[C@H](N)C(=O)O; Dap = NC[C@H](N)C(=O)O; X37 = Fc1cc(F)cc(N*)c1; X46 = COc1ccc(Cl)cc1N*; X51 = Cc1cccc(Cl)c1N*; CO = O=C([*:1])[*:2]
Target: T1, PD-1/PD-L1 (Homo sapiens, UniProt Q9NZQ7)
T1 construct: TVMV protease site linker (C); made in house; host or cells: HEK293T cells
T1 sequence (Q9NZQ7 18-239): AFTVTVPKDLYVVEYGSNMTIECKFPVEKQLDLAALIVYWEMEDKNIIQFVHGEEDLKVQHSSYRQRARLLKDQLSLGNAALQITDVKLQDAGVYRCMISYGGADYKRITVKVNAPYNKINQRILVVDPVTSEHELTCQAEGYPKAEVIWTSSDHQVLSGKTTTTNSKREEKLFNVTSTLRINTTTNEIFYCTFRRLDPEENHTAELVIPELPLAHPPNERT
Test: PD-1/PD-L1 Homogenous Time-Resolved Fluorescence (HTRF) binding assay
Method in brief: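 HTRF read-out using europium cryptate anti-Ig (1 nM) and APC anti-His (20 nM) on extracellular-domain fusion proteins in dPBS/0.1% BSA/0.05% Tween-20. Inhibitor first incubated 15 min with 10 nM PD-L1-His, followed by 20 nM PD-1-Ig for another 15 min.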

[1] = PD-L1-His 10 nM pre-incubated with inhibitor, PD-1-Ig 20 nM, read-out: HTRF IC50

SMILES	IC50 [1] [nM]	IC50 [nM]
CCCC[C@H]1C(=O)N(C)[C@@H](CCCC)C(=O)N[C@@H](CC(C)C)C(=O)N[C@H](C(=O)NCC(N)=O)CSCC(=O)N[C@@H](Cc2ccc(O)cc2)C(=O)N(C)[C@@H](C)C(=O)N[C@@H](CC(N)=O)C(=O)N2CCC[C@H]2C(=O)N[C@@H](CNC(=O)Nc2ccc(C(=O)OCC)cc2)C(=O)N[C@@H](CC(C)C)C(=O)N2C[C@H](O)C[C@H]2C(=O)N[C@@H](Cc2c[nH]c3ccccc23)C(=O)N[C@@H](CCN)C(=O)N[C@@H](Cc2cn(CC(=O)O)c3ccccc23)C(=O)N1C [Example 1069] ({CH2CO}-Y[NMeA]NP[Dap]([CO-4Abz-OEt])L[Hyp]W[Dab][Trp(1-CH2COOH)][NMeNle][NMeNle]LCG-NH2; thioether N-14)	0.4	–
CCCC[C@H]1C(=O)N(C)[C@@H](CCCC)C(=O)N[C@@H](CC(C)C)C(=O)N[C@H](C(=O)NCC(N)=O)CSCC(=O)N[C@@H](Cc2ccc(O)cc2)C(=O)N(C)[C@@H](C)C(=O)N[C@@H](CC(N)=O)C(=O)N2CCC[C@H]2C(=O)N[C@@H](CNC(=S)Nc2ccc([N+](=O)[O-])cc2Cl)C(=O)N[C@@H](CC(C)C)C(=O)N2C[C@H](O)C[C@H]2C(=O)N[C@@H](Cc2c[nH]c3ccccc23)C(=O)N[C@@H](CCNC(=S)Nc2ccc([N+](=O)[O-])cc2Cl)C(=O)N[C@@H](Cc2cn(CC(=O)O)c3ccccc23)C(=O)N1C [Example 1103] ({CH2CO}-Y[NMeA]NP[Dap](X18)L[Hyp]W[Dab](X18)[Trp(1-CH2COOH)][NMeNle][NMeNle]LCG-NH2; thioether N-14)	–	6.5
CCCC[C@H]1C(=O)N(C)[C@@H](CCCC)C(=O)N[C@@H](CC(C)C)C(=O)N[C@H](C(=O)NCC(N)=O)CSCC(=O)N[C@@H](Cc2ccc(O)cc2)C(=O)N(C)[C@@H](C)C(=O)N[C@@H](CC(N)=O)C(=O)N2CCC[C@H]2C(=O)N[C@@H](CNC(=O)c2ccccc2-c2ccc(OC)cc2)C(=O)N[C@@H](CC(C)C)C(=O)N2C[C@H](O)C[C@H]2C(=O)N[C@@H](Cc2c[nH]c3ccccc23)C(=O)N[C@@H](CCNC(=O)c2ccccc2-c2ccc(OC)cc2)C(=O)N[C@@H](Cc2cn(CC(=O)O)c3ccccc23)C(=O)N1C [Example 1095] ({CH2CO}-Y[NMeA]NP[Dap](Benzoyl(2-(4-MeOPh)))L[Hyp]W[Dab](Benzoyl(2-(4-MeOPh)))[Trp(1-CH2COOH)][NMeNle][NMeNle]LCG-NH2; thioether N-14)	5.7	–
CCCC[C@H]1C(=O)N(C)[C@@H](CCCC)C(=O)N[C@@H](CC(C)C)C(=O)N[C@H](C(=O)NCC(N)=O)CSCC(=O)N[C@@H](Cc2ccc(O)cc2)C(=O)N(C)[C@@H](C)C(=O)N[C@@H](CC(N)=O)C(=O)N2CCC[C@H]2C(=O)N[C@@H](CNC(=O)Nc2cccc3ccccc23)C(=O)N[C@@H](CC(C)C)C(=O)N2C[C@H](O)C[C@H]2C(=O)N[C@@H](Cc2c[nH]c3ccccc23)C(=O)N[C@@H](CCN)C(=O)N[C@@H](Cc2cn(CC(=O)O)c3ccccc23)C(=O)N1C [Example 3040] ({CH2CO}-Y[NMeA]NP[Dap]([CO-NH(1-naphthyl)])L[Hyp]W[Dab][Trp(1-CH2COOH)][NMeNle][NMeNle]LCG-NH2; thioether N-14)	–	0.8
CCCC[C@H]1C(=O)N(C)[C@@H](CCCC)C(=O)N[C@@H](CC(C)C)C(=O)N[C@H](C(=O)NCC(N)=O)CSCC(=O)N[C@@H](Cc2ccc(O)cc2)C(=O)N(C)[C@@H](C)C(=O)N[C@@H](CC(N)=O)C(=O)N2CCC[C@H]2C(=O)N[C@@H](CNC(=O)Nc2ccc3ccccc3c2)C(=O)N[C@@H](CC(C)C)C(=O)N2C[C@H](O)C[C@H]2C(=O)N[C@@H](Cc2c[nH]c3ccccc23)C(=O)N[C@@H](CCN)C(=O)N[C@@H](Cc2cn(CC(=O)O)c3ccccc23)C(=O)N1C [Example 3043] ({CH2CO}-Y[NMeA]NP[Dap]([CO-βNA])L[Hyp]W[Dab][Trp(1-CH2COOH)][NMeNle][NMeNle]LCG-NH2; thioether N-14)	–	3.2

The next lines start with results.

IC50 [1] [nM]	SMILES	IC50 [nM]
3.2	CCCC[C@H]1C(=O)N(C)[C@@H](CCCC)C(=O)N[C@@H](CC(C)C)C(=O)N[C@H](C(=O)NCC(N)=O)CSCC(=O)N[C@@H](Cc2ccc(O)cc2)C(=O)N(C)[C@@H](C)C(=O)N[C@@H](CC(N)=O)C(=O)N2CCC[C@H]2C(=O)N[C@@H](CNC(=S)Nc2ccc([N+](=O)[O-])cc2)C(=O)N[C@@H](CC(C)C)C(=O)N2C[C@H](O)C[C@H]2C(=O)N[C@@H](Cc2c[nH]c3ccccc23)C(=O)N[C@@H](CCN)C(=O)N[C@@H](Cc2cn(CC(=O)O)c3ccccc23)C(=O)N1C [Example 1024] ({CH2CO}-Y[NMeA]NP[Dap](X13)L[Hyp]W[Dab][Trp(1-CH2COOH)][NMeNle][NMeNle]LCG-NH2; thioether N-14)	–
7.9	CCCC[C@H]1C(=O)N(C)[C@@H](CCCC)C(=O)N[C@@H](CC(C)C)C(=O)N[C@H](C(=O)NCC(N)=O)CSCC(=O)N[C@@H](Cc2ccc(O)cc2)C(=O)N(C)[C@@H](C)C(=O)N[C@@H](CC(N)=O)C(=O)N2CCC[C@H]2C(=O)N[C@@H](CNC(=S)Nc2c(Cl)ccc(C)c2Cl)C(=O)N[C@@H](CC(C)C)C(=O)N2C[C@H](O)C[C@H]2C(=O)N[C@@H](Cc2c[nH]c3ccccc23)C(=O)N[C@@H](CCN)C(=O)N[C@@H](Cc2cn(CC(=O)O)c3ccccc23)C(=O)N1C [Example 1073] ({CH2CO}-Y[NMeA]NP[Dap](X28)L[Hyp]W[Dab][Trp(1-CH2COOH)][NMeNle][NMeNle]LCG-NH2; thioether N-14)	–
18	CCCC[C@H]1C(=O)N(C)[C@@H](CCCC)C(=O)N[C@@H](CC(C)C)C(=O)N[C@H](C(=O)NCC(N)=O)CSCC(=O)N[C@@H](Cc2ccc(O)cc2)C(=O)N(C)[C@@H](C)C(=O)N[C@@H](CC(N)=O)C(=O)N2CCC[C@H]2C(=O)N[C@@H](CNC(=O)Nc2cccc(C(=O)OCC)c2)C(=O)N[C@@H](CC(C)C)C(=O)N2C[C@H](O)C[C@H]2C(=O)N[C@@H](Cc2c[nH]c3ccccc23)C(=O)N[C@@H](CCNC(=O)Nc2cccc(C(=O)OCC)c2)C(=O)N[C@@H](Cc2cn(CC(=O)O)c3ccccc23)C(=O)N1C [Example 1100] ({CH2CO}-Y[NMeA]NP[Dap]([CO-3Abz-OEt])L[Hyp]W[Dab]([CO-3Abz-OEt])[Trp(1-CH2COOH)][NMeNle][NMeNle]LCG-NH2; thioether N-14)	–
0.6	CCCC[C@H]1C(=O)N(C)[C@@H](CCCC)C(=O)N[C@@H](CC(C)C)C(=O)N[C@H](C(=O)NCC(N)=O)CSCC(=O)N[C@@H](Cc2ccc(O)cc2)C(=O)N(C)[C@@H](C)C(=O)N[C@@H](CC(N)=O)C(=O)N2CCC[C@H]2C(=O)N[C@@H](CNC(=S)Nc2ccc3ccccc3c2)C(=O)N[C@@H](CC(C)C)C(=O)N2C[C@H](O)C[C@H]2C(=O)N[C@@H](Cc2c[nH]c3ccccc23)C(=O)N[C@@H](CCN)C(=O)N[C@@H](Cc2cn(CC(=O)O)c3ccccc23)C(=O)N1C [Example 3028] ({CH2CO}-Y[NMeA]NP[Dap](X12)L[Hyp]W[Dab][Trp(1-CH2COOH)][NMeNle][NMeNle]LCG-NH2; thioether N-14)	–
7.8	CCCC[C@H]1C(=O)N(C)[C@@H](CCCC)C(=O)N[C@@H](CC(C)C)C(=O)N[C@H](C(=O)NCC(N)=O)CSCC(=O)N[C@@H](Cc2ccc(O)cc2)C(=O)N(C)[C@@H](C)C(=O)N[C@@H](CC(N)=O)C(=O)N2CCC[C@H]2C(=O)N[C@@H](CNC(=O)c2ccnc3ccc(OC)cc23)C(=O)N[C@@H](CC(C)C)C(=O)N2C[C@H](O)C[C@H]2C(=O)N[C@@H](Cc2c[nH]c3ccccc23)C(=O)N[C@@H](CCNC(=O)c2ccnc3ccc(OC)cc23)C(=O)N[C@@H](Cc2cn(CC(=O)OC)c3ccccc23)C(=O)N1C [Example 3010] ({CH2CO}-Y[NMeA]NP[Dap](X72)L[Hyp]W[Dab](X72)[Trp(1-CH2CO2Me)][NMeNle][NMeNle]LCG-NH2; thioether N-14)	–
8.6	CCCC[C@H]1C(=O)N(C)[C@@H](CCCC)C(=O)N[C@@H](CC(C)C)C(=O)N[C@H](C(=O)NCC(N)=O)CSCC(=O)N[C@@H](Cc2ccc(O)cc2)C(=O)N(C)[C@@H](C)C(=O)N[C@@H](CC(N)=O)C(=O)N2CCC[C@H]2C(=O)N[C@@H](CN)C(=O)N[C@@H](CC(C)C)C(=O)N2C[C@H](O)C[C@H]2C(=O)N[C@@H](Cc2c[nH]c3ccccc23)C(=O)N[C@@H](CCNC(=O)Nc2cc(F)cc(F)c2)C(=O)N[C@@H](Cc2cn(CC(=O)O)c3ccccc23)C(=O)N1C [Example 1101] ({CH2CO}-Y[NMeA]NP[Dap]L[Hyp]W[Dab]([CO-X37])[Trp(1-CH2COOH)][NMeNle][NMeNle]LCG-NH2; thioether N-14)	–
4.4	CCCC[C@H]1C(=O)N(C)[C@@H](CCCC)C(=O)N[C@@H](CC(C)C)C(=O)N[C@H](C(=O)NCC(N)=O)CSCC(=O)N[C@@H](Cc2ccc(O)cc2)C(=O)N(C)[C@@H](C)C(=O)N[C@@H](CC(N)=O)C(=O)N2CCC[C@H]2C(=O)N[C@@H](CNC(=O)Nc2cc(Cl)ccc2OC)C(=O)N[C@@H](CC(C)C)C(=O)N2C[C@H](O)C[C@H]2C(=O)N[C@@H](Cc2c[nH]c3ccccc23)C(=O)N[C@@H](CCNC(=O)Nc2cc(Cl)ccc2OC)C(=O)N[C@@H](Cc2cn(CC(=O)O)c3ccccc23)C(=O)N1C [Example 1123] ({CH2CO}-Y[NMeA]NP[Dap]([CO-X46])L[Hyp]W[Dab]([CO-X46])[Trp(1-CH2COOH)][NMeNle][NMeNle]LCG-NH2; thioether N-14)	–
0.5	CCCC[C@H]1C(=O)N(C)[C@@H](CCCC)C(=O)N[C@@H](CC(C)C)C(=O)N[C@H](C(=O)NCC(N)=O)CSCC(=O)N[C@@H](Cc2ccc(O)cc2)C(=O)N(C)[C@@H](C)C(=O)N[C@@H](CC(N)=O)C(=O)N2CCC[C@H]2C(=O)N[C@@H](CNC(=O)Nc2c(C)cccc2Cl)C(=O)N[C@@H](CC(C)C)C(=O)N2C[C@H](O)C[C@H]2C(=O)N[C@@H](Cc2c[nH]c3ccccc23)C(=O)N[C@@H](CCNC(=O)Nc2c(C)cccc2Cl)C(=O)N[C@@H](Cc2cn(CC(=O)O)c3ccccc23)C(=O)N1C [Example 1107] ({CH2CO}-Y[NMeA]NP[Dap]([CO-X51])L[Hyp]W[Dab]([CO-X51])[Trp(1-CH2COOH)][NMeNle][NMeNle]LCG-NH2; thioether N-14)	–

Source: patent US20220389061A1, “IMMUNOMODULATORS” (priority 2019, published 2022)
